These results are taken from patent publication US9347888B2, “Detection of bacteria exhibiting a resistance to carbapenems” (BIOMERIEUX, priority 2011, dated 2016).

Bounds are passed on as bounds.

A short description of data set [1]: Test of stability of the different carbapenems in agar medium. Type of data set: physicochemical. The note with it: agar media kept at 2 to 8°C up to 9 weeks (63 days); strains seeded D0, D14, D42, D63. On the procedure:
Agar media modelled on those indicated supra were prepared and kept at a temperature of between 2 and 8° C. for up to 9 weeks (63 days).
ESBL and AmpC strains, and carbapenemases from class B, IR or KPC, were seeded on these different media on D0, D14, D42 and D63.

In the next data set the test system is KPC strains. Nature of the data set: Faropenem on pure strains, agar dilution: MIC and growth of KPC strains. It counts as cell-based, Gram-negative bacteria. The method, then: (§1) Seventy-nine strains of Gram-negative bacteria, of which 69 are enterobacteria and 10 non-enterobacteria (non-fermenting bacteria), whose resistance characteristics are set out in Table I, were tested on media containing different concentrations of faropenem in order to establish the sensitivity/specificity of each formulation. The dishes were read after 24 hours of incubation at 37° C.
(§2) The medium used is a conventional agar medium comprising at least one chromogenic substrate, and supplemented with faropenem at the following concentrations:
(§3) The media are divided into 120×120 square dishes.
(§4) The seeding is performed from 24-h pre-cultures at 37° C. on trypcase soy agar.
(§5) For each strain, a 0.5 McF suspension in physiological water is produced and then diluted 1/100.
(§6) Each suspension is spot-seeded (1 to 2 μL) on each medium with the aid of a multi-point inoculator according to the Agar Dilution (AD) method.
(§7) Readings are performed after 24 hours of incubation at 37° C.
(§8) For interpretation, the following cases are considered as corresponding to growth inhibition: • absence of bacterial growth • number of colonies≦3
(§9) The presence of 4 colonies or more is considered to be positive growth.
A general note: Agar dilution tests growth on a series of plates holding different concentrations.

For data set [2], the system named is carbapenemase-producing strains. Put plainly: Faropenem on pure strains, agar dilution: detection sensitivity. The following applies: medium containing 16 mg/L faropenem; for Detection sensitivity (strains detected/strains): 24 h 37°C. Type of data set: cell-based, Gram-negative bacteria. On the procedure: as §1, §2, §3, §4, §5, §6, §7, §8, §9
Data set [3] relates to IR (impermeability resistance) strains. Nature of the data set: Impact of cloxacillin and/or PAbetaN with faropenem, agar dilution. Type of data set: cell-based, Gram-negative bacteria. On the procedure: (§10) Seventy-seven strains of Gram-negative bacteria, of which 71 are enterobacteria and 6 non-enterobacteria (non-fermenting bacteria), whose resistance characteristics are set out in Table VIII, were tested on media containing different concentrations of faropenem and cloxacillin, with or without PAbetaN, in order to establish the sensitivity and the specificity of each formulation. The tested media are described in Table IX.
(§11) The chromogenic media are divided into 120×120 square dishes.
(§12) The seeding is performed from 24-h pre-cultures at 37° C. on trypcase soy agar. For each strain, a 0.5 McF suspension in physiological water is produced. Each suspension is spot-seeded (1 to 2 μL) on each medium with the aid of a multi-point inoculator according to the Agar Dilution (AD) method. Readings are performed after 24 hours of incubation at 37° C.
(§13) An absence of bacterial growth or a number of colonies which is less than or equal to 3 are considered as corresponding to growth inhibition. The presence of 4 colonies or more is considered to be positive growth.

Data set [4] has as its system strains with other types of resistance (ESBL or cephalosporinase, impermeability resistance). Put plainly: Faropenem on pure strains, agar dilution: detection specificity. The note with it: medium containing 16 mg/L faropenem; for Detection specificity (strains inhibited/strains): 24 h 37°C. Type of data set: cell-based, Gram-negative bacteria. On the procedure: as §1, §2, §3, §4, §5, §6, §7, §8, §9

A further data set relates to Total carbapenemases. Nature of the data set: Impact of cloxacillin and/or PAbetaN with faropenem, agar dilution. It counts as cell-based, Gram-negative bacteria. The note with it: cloxacillin alone (no PAbetaN), at the 3 concentrations of faropenem tested. On the procedure: as §10, §11, §12, §13

As to `C[C@@H](O)[C@H]1C(=O)N2C(C(=O)O)=C(S[C@@H]3CN[C@H](CNS(N)(=O)=O)C3)[C@H](C)[C@H]12` [doripenem], the “stability in agar medium” value in data set [1] was “close to that of ertapenem, and greater than that of imipenem and of meropenem”.
For the molecule `C[C@@H](O)[C@H]1C(=O)N2C(C(=O)O)=C([C@H]3CCCO3)S[C@H]12` [faropenem], the “KPC strains developing on the medium” value in the data set with KPC strains (faropenem at 16 mg/L) is on record as “All of the KPC strains develop”. Also, the “MIC of the totality of KPC strains” value in the data set on KPC strains (whatever the inoculum tested, unit not printed (media in mg/L)) was above 32. For the same molecule, the Detection sensitivity in data set [2] (inoculum 0.5 McF) and in data set [2] (inoculum 0.5 McF diluted 1/100) was 91.4% throughout. Moreover, the “Detection sensitivity (strains detected/strains)” value in data set [2] (inoculum 0.5 McF diluted 1/100) and in data set [2] (inoculum 0.5 McF) was 53/58 each time. The “stability in agar medium” value in data set [1] is “close to that of ertapenem, and greater than that of imipenem and of meropenem”. The “No. IR developing (/19)” value is on record as 16 in data set [3] (PAbetaN 0, cloxacillin 0, faropenem 8 mg/L); 15 in data set [3] (PAbetaN 0, cloxacillin 0, faropenem 16 mg/L); 10 in data set [3] (PAbetaN 0, cloxacillin 0, faropenem 32 mg/L); 14 in data set [3] (PAbetaN 0, cloxacillin 50, faropenem 8 mg/L); 9 in data set [3] (PAbetaN 0, cloxacillin 50, faropenem 16 mg/L); 4 in data set [3] (PAbetaN 0, cloxacillin 50, faropenem 32 mg/L). For the same molecule, the “No. IR developing (/19)” value in data set [3] (PAbetaN 0, cloxacillin 100, faropenem 8 mg/L) was determined as 11; in data set [3] (PAbetaN 0, cloxacillin 100, faropenem 16 mg/L), 6; in data set [3] (PAbetaN 0, cloxacillin 100, faropenem 32 mg/L), 2; in data set [3] (PAbetaN 0, cloxacillin 200, faropenem 8 mg/L), 11; in data set [3] (PAbetaN 0, cloxacillin 200, faropenem 16 mg/L), 6; in data set [3] (PAbetaN 0, cloxacillin 200, faropenem 32 mg/L), 1. Further, the “No. IR developing (/19)” value in data set [3] (PAbetaN 25, cloxacillin 50, faropenem 8 mg/L) came out at 11; in data set [3] (PAbetaN 25, cloxacillin 50, faropenem 16 mg/L), 10; in data set [3] (PAbetaN 25, cloxacillin 50, faropenem 32 mg/L), 5; in data set [3] (PAbetaN 25, cloxacillin 100, faropenem 8 mg/L), 10; in data set [3] (PAbetaN 25, cloxacillin 100, faropenem 16 mg/L) it was 5; in data set [3] (PAbetaN 25, cloxacillin 100, faropenem 32 mg/L) it was 1. Also, the “No. IR developing (/19)” value in data set [3] (PAbetaN 25, cloxacillin 200, faropenem 8 mg/L) was determined as 7; in data set [3] (PAbetaN 25, cloxacillin 200, faropenem 16 mg/L) it was 1; in data set [3] (PAbetaN 25, cloxacillin 200, faropenem 32 mg/L), 1. Besides, the “impact on IR strains” value in data set [3] (faropenem alone, up to a concentration of 16 mg/L) is “little impact”. Also, the Detection specificity amounted to 66.7% in data set [4] (inoculum 0.5 McF) and 71.4% in data set [4] (inoculum 0.5 McF diluted 1/100). Further, the entries for the “Detection specificity (strains inhibited/strains)” value in data set [4] (inoculum 0.5 McF diluted 1/100) and in data set [4] (inoculum 0.5 McF) were 15/21 and 14/21, respectively.
Consider `Cc1onc(-c2ccccc2Cl)c1C(=O)N[C@@H]1C(=O)N2[C@@H]1SC(C)(C)[C@@H]2C(=O)O` [cloxacillin], for which, in the data set with Total carbapenemases, the “impact on the growth of the carbapenemase-producing strains” value is given as “little or no impact”. The “additional IR strains inhibited” value in data set [3] (addition of 50 mg/L cloxacillin at 16 mg/L of faropenem) is 6; in data set [3] (addition of 200 mg/L cloxacillin at 16 mg/L of faropenem), 9.
